From US20130261133A1, “Therapeutic Compounds for Protozoal and Microbial Infections and Cancer” (THE UNIVERSITY OF MONTANA, priority 2012, published 2013)
Several values for one entry are separate records, joined by “and”; a condition that tells them apart may be missing. Identical values can stand only once.

How the values were obtained:
[1] = system: P. aeruginosa; experiment: MIC broth microdilution, Alamar Blue; type: cell-based; conditions: minimum inhibitory concentration
[2] = system: E. faecalis; experiment: MIC broth microdilution, Alamar Blue; type: cell-based; conditions: minimum inhibitory concentration
[3] = system: HepG2 cells; experiment: Cytotoxicity against human liver (HepG2) cells, Alamar Blue; type: cell-based; conditions: HepG2, read-out: IC50 mammalian HepG2 cells
Experimental: Several of these analogues were also evaluated for cytotoxicity against human liver (HepG2) cells. Of particular interest was that compounds 47 and 48 were approximately an order of magnitude less cytotoxic as compared to compound 1.
Adherent cell lines were maintained in Eagle's Minimal Essential Media (Sigma-Aldrich, St. Louis, Mo., USA) with 2 mM glutamine and Earle's Balanced Salt Solution (HyClone, Logan, Utah, USA) adjusted to contain 1.5 g/L sodium bicarbonate, 0.1 mM non-essential amino acids, 1 mM sodium pyruvate and 10% fetal calf serum. Fetal calf serum used in these assays was lot matched throughout. All cultures were maintained under a humidified 5% CO2 atmosphere at 37° C., had media refreshed twice weekly and were subcultured by trypsinization and resuspension at a ratio of 1:5 each week. Toxicity assays were conducted between passages 10-20. Target compound toxicity was measured by incubating the test compound with the cells for 4 hours, washing the cells and finally treating the cells with Alamar Blue. After 12-24 hours, the fluorescence of the reduced dye was measured. Fluorescence intensity as a function of test compound concentration was fit to the Fermi equation, using non-linear least squares regression analysis, to estimate IC50 values.

[4] = system: B. subtilis; experiment: MIC broth microdilution, Alamar Blue; type: cell-based; conditions: minimum inhibitory concentration
[5] = system: C. glabrata; experiment: MIC broth microdilution, Alamar Blue; type: cell-based; conditions: minimum inhibitory concentration
[6] = system: S. aureus 13709; experiment: MIC broth microdilution, Alamar Blue; type: cell-based; conditions: minimum inhibitory concentration
[7] = system: S. pyogenes; experiment: MIC broth microdilution, Alamar Blue; type: cell-based; conditions: minimum inhibitory concentration
[8] = system: B. anthracis; type: cell-based; conditions: minimum inhibitory concentration
[9] = system: C. albicans; experiment: MIC broth microdilution, Alamar Blue; type: cell-based; conditions: minimum inhibitory concentration
[10] = system: P. falciparum clone W2/Indochina; experiment: In vitro malaria assay, [3H]-hypoxanthine incorporation; type: cell-based; conditions: Plasmodium falciparum, W2, 72 h, read-out: IC50 Plasmodium
Experimental: a. In vitro Parasite Culturing: P. falciparum clone W2/Indochina was grown in continuous culture using RPMI 1640 media containing 10% heat-inactivated type A+ human plasma, sodium bicarbonate (2.4 g/L), HEPES (5.94 g/L) and 4% washed human type A+ erythrocytes. Cultures were gassed with a 90% N2, 5% O2 and 5% CO2 mixture followed by incubation at 37° C. b. Assay Preparation: Test compounds at 5 mg/mL in DMSO were diluted 1:500 and then serially diluted in duplicate over 11 concentrations. P. falciparum cultures with >70% ring stage parasites were diluted to 0.5-0.7% parasitemia and 1.5% hematocrit in RPMI 1640 media. In 96-well plates a volume of 90 μl/well of parasitized erythrocytes was added on top of 10 μL/well of the test compound. A separate plate containing chloroquine, dihydroartemisinin and atovaquone was added to each set of assay plates as control drugs. A Beckman Coulter Biomek 3000 was used to dispense test compounds, control drugs and parasitized erythrocytes into the microtiter plates. Positive and negative controls were included in each plate. Positive controls consisted of parasitized erythrocytes and negative controls consisted of non-parasitized erythrocytes at 1.5% hematocrit in RPMI 1640 media. Assay plates were placed into a modulator incubator chamber and equilibrated with 90% N2, 5% O2 and 5% CO2 mixture then incubated at 37° C. for 48 hours. After 48 hours, approximately 0.05 μCi of [^3H]-hypoxanthine monohydrochloride was added to each well of the assay plates. Plates were put back into the modulator incubation chamber, gassed with the 90% N2, 5% O2 and 5% CO2 mixture then incubated at 37° C. for an additional 24 hours. After 72 hours total incubation time the plates were frozen at −80° C. until later processed for parasite growth determinations. c. Assay Plate Processing: Assay plates were harvested using a Perkin Elmer FilterMate Harvester. The incorporation of [^3H]-hypoxanthine into nucleic acid was measured using a Perkin Elmer Topcount NXT Microplate Scintillation & Luminescence Counter. d. Data Analysis: Data analysis was performed using a custom database manager (Dataspects, Inc). Nonlinear regression analysis was used to calculate EC50.

[11] = system: Leishmania donovani; experiment: Antileishmanial assay, Leishmania in infected macrophages (L. donovani); conditions: for IC50: Leishmania donovani, Macrophage, read-out: IC50 Leishmania in infected macrophages
[12] = system: Leishmania amazonensis; experiment: Antileishmanial assay, Leishmania in infected macrophages (L. amazonensis); conditions: Leishmania amazonensis; for IC50: Macrophage, read-out: IC50 Leishmania in infected macrophages
[13] = system: leishmaniasis (LV82 PM infection), liver parasitemia; experiment: In vivo efficacy: liver parasitemia in BALB/c mice with leishmaniasis; conditions: 10 mg/kg i.p.
Experimental: The following protocols were used to prepare the various treatments described in Table 2: • a. Miltefosine ([…] stock solution in sterile PBS): 7.5 mg miltefosine was weighed and put in a eppendorf tube, then 0.75 mL of sterile PBS was added. After vortexing, a clear solution was formed. Make 1 mg/mL solution daily by diluting 100 μL of 10 mg/mL miltefosine solution in 900 μL sterile PBS. • b. Vehicle control: 5% (v/v) DMSO, 50% (v/v) PEG 400, 10% (v/v) Ethanol, and 35% (v/v) distilled water. • c. Compound 47 (2 mg/mL solution of compound 47 in PEG 400/Ethanol vehicle): […]. Dilute the above solution 1:20 with PEG 400/EtOH/water daily. After vortexing and warming up at 37° C. for 30 min., a clear solution formed. • d. Compound 48 (2 mg/mL solution of compound 48 in PEG 400/Ethanol vehicle): 6.8 mg of compound 48 was dissolved in 0.17 mL of DMSO to make a 40 mg/mL stock solution. After vortexing, a yellowish-brown solution was formed. Diluted the above solution 1:20 with PEG 400/EtOH/water daily. After vortexing a clear solution formed. • e. Compound 50 (2 mg/mL solution of compound 50 in PEG 400/Ethanol vehicle): 8.4 mg of compound 50 was dissolved in 0.21 mL of DMSO to make a 40 mg/mL stock solution. After vortexing, a dark yellowish-brown solution was formed. Diluted the above solution 1:20 with PEG 400/EtOH/water. After vortexing a clear solution formed.
(§1) Compounds 47, 48, and 50 were then evaluated in animal studies with BALB/c mice with leishmaniasis. Compounds were delivered via i.p. injection at 10 mg/kg, with untreated, vehicle, and miltefosine controls as described in Table 2. […] Miltefosine, the only oral treatment currently available to treat leishmaniasis in humans, was also evaluated in the BALB/c mice for comparison purposes.

[14] = Body and organ weights of infected, treated BALB/c mice; type: in vivo
Experimental: as §1

C=C[C@@H](C#CC#C[C@H](O)CCC)OC(C)=O [Compound 20, (3S,8R)-8-hydroxyundeca-1-en-4,6-diyn-3-yl acetate]
MIC P. aeruginosa [1]: >1000
MIC E. faecalis [2]: 1000
IC50 [3]: 57000 ± 2000 nM
MIC B. subtilis [4]: 250
MIC C. glabrata [5]: 250
MIC S. aureus [6]: 1000
MIC S. pyogenes [7]: 250
MIC B. anthracis [8]: 1000
MIC C. albicans [9]: 250
IC50 [10]: 9.18 µg/mL
Selectivity Index ([11]; IC50 for HepG2 cells/IC50 for Leishmania donovani): 290
IC50 [11]: 197 nM

C=C[C@H](C#CC#C[C@@H](O)CCCCCCCCC)OC(C)=O [Compound 3, (3R,8S)-8-hydroxyheptadeca-1-en-4,6-diyn-3-yl acetate]
anti-Leishmanial activity at 10 μM [12]: no anti-Leishmanial activity
IC50 [12]: > 10000 nM
IC50 [10]: 8.15 µg/mL

C=C[C@H](C#CC#C[C@H](O)CCCCCCCCC)OC(C)=O [Compound 2, (3R,8R)-8-hydroxyheptadeca-1-en-4,6-diyn-3-yl acetate]
anti-Leishmanial activity at 10 μM [12]: no anti-Leishmanial activity
IC50 [12]: > 10000 nM
IC50 [10]: 8.07 µg/mL

C=C[C@@H](C#CC#C[C@H](O)CCCCCCCCCCCCCCC)OC(C)=O (stereo in doubt) [Compound 44, (3S,8R)-8-hydroxytricosa-1-en-4,6-diyn-3-yl acetate]
MIC P. aeruginosa [1]: >1000
MIC E. faecalis [2]: >1000
MIC B. subtilis [4]: >1000
MIC C. glabrata [5]: >1000
MIC S. aureus [6]: >1000
MIC S. pyogenes [7]: >1000
MIC B. anthracis [8]: >1000
MIC C. albicans [9]: >1000
IC50 [10]: 2.14 µg/mL
IC50 [11]: 287 nM

C=C[C@@H](C#CC#C[C@@H](CCCCCCCCC)OS(C)(=O)=O)OC(C)=O [Compound 49, (3S,8R)-8-((methylsulfonyl)oxy)heptadeca-1-en-4,6-diyn-3-yl acetate]
MIC P. aeruginosa [1]: >1000
MIC E. faecalis [2]: 500
MIC B. subtilis [4]: 250
MIC C. glabrata [5]: >1000
MIC S. aureus [6]: 250
MIC S. pyogenes [7]: 125
MIC B. anthracis [8]: 250
MIC C. albicans [9]: >1000
IC50 [10]: 2.13 µg/mL
IC50 [11]: 61 nM

CCCCCCCCCCCCCCCCOP(=O)([O-])OCC[N+](C)(C)C [Miltefosine, reference compound]
LDU mean ± SD ([13]; group mean, n=4): 87.0
% Reduction (Average) in liver parasitemia ([13]; infected BALB/c mice): 98% and 97.8%
# of amastigotes per 200 nuclei ([13]; liver, individual mice): 22 and 13 and 8 and 24
LDU ([13]; total liver parasitemia, individual mice): 109.6 and 67.7 and 35.9 and 134.9
Body weight ([14]; 10 mg/kg i.p., individual mice, Table 4): 18.3 g and 18.0 g and 17.1 g and 20.0 g
Mean body weight of mice Post-treatment ([14]; post-treatment, 10 mg/kg i.p., group mean): 18.4 g
Mean body weight of mice Pre-treatment ([14]; pre-treatment (baseline), group mean): 18.4 g

C=C[C@@H](C#CC#C[C@@H](CCCCCCCCC)NC(=O)c1cccc(C(F)(F)F)c1)OC(C)=O [Compound 68, (3S,8R)-8-(3-(trifluoromethyl)benzamido)heptadeca-1-en-4,6-diyn-3-yl acetate]
IC50 [11]: 191 nM

C=C[C@H](O)C#CC#C[C@@H](CCCCCCCCC)OC [Compound 58, (3S,8R)-8-methoxyheptadeca-1-en-4,6-diyn-3-ol]
IC50 [11]: 11 nM

C=C[C@@H](C#CC#C[C@@H](CCCCCCCCC)NC(=O)c1ccco1)OC(C)=O [Compound 69, (3S,8R)-8-(furan-2-carboxamido)heptadeca-1-en-4,6-diyn-3-yl acetate]
IC50 [11]: 50 nM

C=C[C@@H](C#CC#C[C@H](N)CCCCCCCCC)OC(C)=O [Compound 45, (3S,8R)-8-aminoheptadeca-1-en-4,6-diyn-3-yl acetate]
MIC P. aeruginosa [1]: >1000
MIC E. faecalis [2]: 1000
MIC B. subtilis [4]: 250
MIC C. glabrata [5]: 500
MIC S. aureus [6]: 1000
MIC S. pyogenes [7]: 250
MIC B. anthracis [8]: 250
MIC C. albicans [9]: 250

C=C[C@@H](C#CC#C[C@@H](CCCCCCCCC)NC(=O)c1cccc(Br)c1)OC(C)=O [Compound 65, (3S,8R)-8-(3-bromobenzamido)heptadeca-1-en-4,6-diyn-3-yl acetate]
IC50 [11]: 184 nM

C=C[C@@H](C#CC#CC(CCCCCCCCC)NC(=O)c1ccc(Cl)cc1)OC(C)=O (stereo in doubt) [Compound 39, (3S,8R)-8-(4-chlorobenzamido)heptadeca-1-en-4,6-diyn-3-yl acetate]
IC50 [11]: 112 nM

C=C[C@@H](C#CC#C[C@@H](CCCCCCCCC)N=C=S)OC(C)=O [Compound 71, (3S,8R)-8-isothiocyanatoheptadeca-1-en-4,6-diyn-3-yl acetate]
IC50 [11]: 21600 nM

CCCCCCCCC[C@H](C#CC#C[C@@H](O)C1CC1)NCCCC [Compound 74, (1S,6R)-6-(butylamino)-1-cyclopropylpentadeca-2,4-diyn-1-ol]
IC50 [11]: 722 nM

C=C[C@@H](C#CC#C[C@@H](CCCCCCCCC)NC(=O)c1cccc(C)c1)OC(C)=O [Compound 66, (3S,8R)-8-(3-methylbenzamido)heptadeca-1-en-4,6-diyn-3-yl acetate]
IC50 [11]: 120 nM

C=C[C@@H](C#CC#C[C@@H](CCCCCCCCC)NC(=O)CCCOCc1ccccc1)OC(C)=O [Compound 72, (3S,8R)-8-(4-(benzyloxy)butanamido)heptadeca-1-en-4,6-diyn-3-yl acetate]
IC50 [11]: 529 nM
